The source of these data is patent publication US20260167623A1 (NIKANG THERAPEUTICS, INC., priority 2022, published 2026).

Molecules are shown by their SMILES.

In this test the target is T1, CDK2 (Homo sapiens, UniProt P24941).
T1 construct: High-Throughput Measurement of Cellular Endogenous CDK2; endogenous in cells; host or cells: OVCAR3
Briefly: Inhibition of CDK2: phospho-Rb (S807/811) HTRF measurement in OVCAR3 cells, 24 h. The class given is cell-based. The settings on record: 24 h compound treatment, read-out: pRB_OVCAR3_24h. In short, it runs like this:
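OVCAR3 cells, seeded overnight, were exposed to compounds at 0.3 to 10,000 nM for 24 h, then lysed. Rb S807/811 phosphorylation read by HTRF (665/620 nm ratio) after 4 h detection at room temperature; data normalized to DMSO and IC50 from four-parameter logistic fit.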
In general terms: Time-resolved FRET reads energy transfer from a long-lived donor to a nearby acceptor.
Consider `C[C@H]1CN(CC2CCN(c3cccc(S(=O)(=O)N4CCC(Nc5ncc(Cl)cn5)CC4)c3)CC2)CCN1c1ccc2c(N3CCC(=O)NC3=O)nn(C)c2c1` [Example 117, (S)-1-(6-(4-((1-(3-((4-((5-chloropyrimidin-2-yl)amino)piperidin-1-yl)sulfonyl)phenyl)-piperidin-4-yl)methyl)-2-methylpiperazin-1-yl)-1-methyl-1H-indazol-3-yl)dihydro-pyrimidine-2,4(1H,3H)-dione], for which the IC50 lay in the range of 100 to 500 nM.

In the case of `Cn1nc(N2CCC(=O)NC2=O)c2ccc(C3CCN(CC4CCN(c5cccc(S(=O)(=O)N6CCC(Nc7ncc(F)cn7)CC6)c5)CC4)CC3)cc21` [Example 193, 1-(6-(1-((1-(3-((4-((5-fluoropyrimidin-2-yl)amino)piperidin-1-yl)sulfonyl)phenyl)piperidin-4-yl)methyl)piperidin-4-yl)-1-methyl-1H-indazol-3-yl)dihydropyrimidine-2,4(1H,3H)-dione], the IC50 is 500 to 2500 nM. In the case of `Cn1nc(N2CCC(=O)NC2=O)c2ccc(C3CCN(Cc4cncc(S(=O)(=O)N5CCC(Nc6ncc(C(F)(F)F)cn6)CC5)c4)CC3)cc21` [Example 130, 1-(1-methyl-6-(1-((5-((4-((5-(trifluoro-methyl)pyrimidin-2-yl)amino)piperidin-1-yl)sulfonyl)pyridin-3-yl)methyl)piperidin-4-yl)-1H-indazol-3-yl)dihydropyrimidine-2,4(1H,3H)-dione] it was 1 to 100 nM; in that of `Cn1nc(N2CCC(=O)NC2=O)c2ccc(N3CC4(CN(Cc5cccc(S(=O)(=O)N6CCC(Nc7ncc(C(F)(F)F)cn7)CC6)c5)C4)C3)cc21` [Example 4, 1-(1-methyl-6-(6-(3-((4-((5-(trifluoromethyl)pyrimidin-2-yl)amino)piperidin-1-yl)sulfonyl)benzyl)-2,6-diazaspiro[3.3]heptan-2-yl)-1H-indazol-3-yl)dihydropyrimidine-2,4(1H,3H)-dione], 100 to 500 nM; in that of `Cn1nc(N2CCC(=O)NC2=O)c2ccc(N3CCN(CC4CCN(c5cccc(S(=O)(=O)N6CCC(Nc7ncc(Cl)cn7)CC6)c5)CC4)C4CC43)cc21` (stereo not drawn) [Example 143, 1-(6-(5-((1-(3-((4-((5-chloropyrimidin-2-yl)amino)piperidin-1-yl)sulfonyl)phenyl)-piperidin-4-yl)methyl)-2,5-diazabicyclo-[4.1.0]heptan-2-yl)-1-methyl-1H-indazol-3-yl)dihydropyrimidine-2,4(1H,3H)-dione], 500 to 2500 nM.

Consider `O=C1CCN(c2nn(CC(F)(F)F)c3cc(N4CCN(Cc5cccc(S(=O)(=O)N6CCC(Nc7ncc(Cl)cn7)CC6)c5)CC4)ccc23)C(=O)N1` [Example 62, 1-(6-(4-(3-((4-((5-chloropyrimidin-2-yl)amino)piperidin-1-yl)sulfonyl)benzyl)-piperazin-1-yl)-1-(2,2,2-trifluoroethyl)-1H-indazol-3-yl)dihydropyrimidine-2,4(1H,3H)-dione], for which the IC50 was in the range of 100 to 500 nM. In the case of `Cn1nc(N2CCC(=O)NC2=O)c2ccc(C3CCN(Cc4ccc(C#Cc5cccc(S(=O)(=O)N6CCC(Nc7ncc(C(F)(F)F)cn7)CC6)c5)cc4)CC3)cc21` [Example 232, 1-(1-methyl-6-(1-(4-((3-((4-((5-(trifluoromethyl)pyrimidin-2-yl)amino)piperidin-1-yl)sulfonyl)phenyl)ethynyl)benzyl)piperidin-4-yl)-1H-indazol-3-yl)dihydropyrimidine-2,4(1H,3H)-dione] it was 100 to 500 nM; in that of `Cn1nc(N2CCC(=O)NC2=O)c2ccc(N3CCN(Cc4cccc(S(=O)(=O)N5CCC(Nc6ncc(C(F)(F)F)cn6)CC5)c4)CC3)cc21` [Example 12, 1-(1-methyl-6-(4-(3-((4-((5-(trifluoro-methyl)pyrimidin-2-yl)amino)piperidin-1-yl)sulfonyl)benzyl)piperazin-1-yl)-1H-indazol-3-yl)dihydropyrimidine-2,4(1H,3H)-dione], 100 to 500 nM; in that of `Cn1nc(N2CCC(=O)NC2=O)c2ccc(C3CN(CC4CCN(c5cccc(S(=O)(=O)N6CCC(Nc7ncc(Cl)cn7)CC6)c5)CC4)C3)cc21` [Example 249, 1-(6-(1-((1-(3-((4-((5-chloropyrimidin-2-yl)amino)piperidin-1-yl)sulfonyl)phenyl)piperidin-4-yl)methyl)azetidin-3-yl)-1-methyl-1H-indazol-3-yl)dihydropyrimidine-2,4(1H,3H)-dione], 100 to 500 nM. As to `Cn1nc(N2CCC(=O)NC2=O)c2ccc(C3CCN(CC4CCN(c5cccc(S(=O)(=O)N6CC7(CC(Nc8ncc(C(F)(F)F)cn8)C7)C6)c5)CC4)CC3)cc21` [Example 172, 1-(1-methyl-6-(1-((1-(3-((6-((5-(trifluoromethyl)pyrimidin-2-yl)amino)-2-azaspiro[3.3]heptan-2-yl)sulfonyl)phenyl)piperidin\-4-yl)methyl)piperidin-4-yl)-1H-indazol-3-yl)dihydropyrimidine-2,4(1H,3H)-dione], the IC50 was above 2500 nM. As for `Cn1nc(N2CCC(=O)NC2=O)c2ccc(C3CCN(Cc4ccc(C5CCCN(S(=O)(=O)N6CCC(Nc7ncc(Cl)cn7)CC6)C5)cc4)CC3)cc21` (stereo not drawn) [Example 157, 1-(6-(1-(4-(1-((4-((5-chloropyrimidin-2-yl)amino)piperidin-1-yl)sulfonyl)piperidin-3-yl)benzyl)piperidin-4-yl)-1-methyl-1H-indazol-3-yl)dihydropyrimidine-2,4(1H,3H)-dione], the IC50 is 500 to 2500 nM. In the case of `Cn1nc(N2CCC(=O)NC2=O)c2ccc(C3CCN(CC4CCN(c5cc(S(=O)(=O)N6CCC(Nc7ncc(C(F)(F)F)cn7)CC6)ccc5F)CC4)CC3)cc21` [Example 142, 1-(6-(1-((1-(2-fluoro-5-((4-((5-(trifluoro-methyl)pyrimidin-2-yl)amino)piperidin-1-yl)sulfonyl)phenyl)piperidin-4-yl)methyl)-piperidin-4-yl)-1-methyl-1H-indazol-3-yl)dihydropyrimidine-2,4(1H,3H)-dione], the IC50 was in the range of 1 to 100 nM. As for `CC(Cc1cccc(S(=O)(=O)N2CCC(Nc3ncc(OC(F)F)cn3)CC2)c1)CN1CCN(c2cc3c(cc2F)C(=O)N(C2CCC(=O)NC2=O)C3)CC1` (stereo not drawn) [Example 102, 3-(5-(4-(3-(3-((4-((5-(difluoromethoxy)-pyrimidin-2-yl)amino)piperidin-1-yl)sulfonyl)phenyl)-2-methylpropyl)-piperazin-1-yl)-6-fluoro-1-oxoisoindolin-2-yl)piperidine-2,6-dione], the figure is 500 to 2500 nM. As for `Cn1nc(N2CCC(=O)NC2=O)c2cnc(C3CCN(CC4CCN(c5cccc(S(=O)(=O)N6CCC(Nc7ncc(Cl)cn7)CC6)c5)CC4)CC3)cc21` [Example 228, 1-(6-(1-((1-(3-((4-((5-chloropyrimidin-2-yl)amino)piperidin-1-yl)sulfonyl)phenyl)piperidin-4-yl)methyl)piperidin-4-yl)-1-methyl-1H-pyrazolo[4,3-c]pyridin-3-yl)dihydropyrimidine-2,4(1H,3H)-dione], the figure is 100 to 500 nM; as for `Cn1nc(N2CCC(=O)NC2=O)c2ccc(C3CCN(Cc4ccc(S(=O)(=O)N5CCC(Nc6ncc(OC(F)F)cn6)CC5)cc4)CC3)c(F)c21` [Example 242, 1-(6-(1-(4-((4-((5-(difluoromethoxy)pyrimidin-2-yl)amino)piperidin-1-yl)sulfonyl)benzyl)piperidin-4-yl)-7-fluoro-1-methyl-1H-indazol-3-yl)dihydropyrimidine-2,4(1H,3H)-dione], 500 to 2500 nM; as for `Cn1nc(N2CCC(=O)NC2=O)c2ccc(C3CCN(Cc4cccc(C#Cc5cccc(S(=O)(=O)N6CCC(Nc7ncc(C(F)(F)F)cn7)CC6)c5)c4)CC3)cc21` [Example 233], 100 to 500 nM. In the case of `O=C1CCC(Nc2ccc(N3CCN(Cc4cccc(S(=O)(=O)N5CCC(Nc6ncc(C(F)(F)F)cn6)CC5)c4)CC3)cc2)C(=O)N1` (stereo not drawn) [Example 78, 3-((4-(4-(3-((4-((5-(trifluoromethyl)-pyrimidin-2-yl)amino)piperidin-1-yl)sulfonyl)benzyl)piperazin-1-yl)phenyl)amino) piperidine-2,6-dione] it was 100 to 500 nM; in that of `O=C1CCC(N2Cc3cc(C4CN(Cc5cccc(S(=O)(=O)N6CCC(Nc7ncc(Cl)cn7)CC6)c5)C4)ccc3C2=O)C(=O)N1` (stereo not drawn) [Example 50, 3-(5-(1-(3-((4-((5-chloropyrimidin-2-yl)amino)piperidin-1-yl)sulfonyl)benzyl)-azetidin-3-yl)-1-oxoisoindolin-2-yl)piperidine-2,6-dione], 500 to 2500 nM.

Regarding `O=C1CCC(N2Cc3cc(N4CCN(CC5CCN(c6cccc(S(=O)(=O)N7CCC(Nc8ncc(Cl)cn8)CC7)c6)CC5)CC4)c(F)cc3C2=O)C(=O)N1` (stereo not drawn) [Example 103, 3-(5-(4-((1-(3-((4-((5-chloropyrimidin-2-yl)amino)piperidin-1-yl)sulfonyl)phenyl)-piperidin-4-yl)methyl)piperazin-1-yl)-6-fluoro-1-oxoisoindolin-2-yl)piperidine-2,6-dione], the IC50 was in the range of 500 to 2500 nM. Take `Cn1nc(N2CCC(=O)NC2=O)c2ccc(N3CCN(Cc4cccc(S(=O)(=O)[C@H]5CC[C@H](Nc6ncc(Cl)cn6)CC5)c4)CC3)cc21` [Example 67, 1-(6-(4-(3-(((1r,4r)-4-((5-chloropyrimidin-2-yl)amino)cyclohexyl)sulfonyl)benzyl)piperazin-1-yl)-1-methyl-1H-indazol-3-yl)dihydropyrimidine-2,4(1H,3H)-dione]: the IC50 is above 2500 nM. `Cn1c(=O)n(C2CCC(=O)NC2=O)c2cccc(C3CCN(CC4CCN(c5cccc(S(=O)(=O)N6CCC(Nc7ncc(OC(F)F)cn7)CC6)c5)CC4)CC3)c21` (stereo not drawn) [Example 121, 3-(4-(1-((1-(3-((4-((5-(difluoromethoxy)-pyrimidin-2-yl)amino)piperidin-1-yl)sulfonyl)phenyl)piperidin-4-yl)methyl)-piperidin-4-yl)-3-methyl-2-oxo-2,3-dihydro-1H-benzo[d]imidazol-1-yl)piperidine-2,6-dione]: the IC50 was 1 to 100 nM.
